Values quoted from earlier work as cited in patent US6947791B2, “Method and apparatus for electrically assisted topical delivery of agents for cosmetic applications” (Genetronics, Inc., priority 1998, dated 2005).
Read-outs that look alike come from different tables or passages of the source.

Tested on: human dermal fibroblasts
Settings: for MTT50 (amount required to kill 50% of the cells in cell culture): pH 7.5

Structure (SMILES): O=C1O[C@H]([C@@H](O)CO)C([O-])=C1OP(=O)([O-])[O-].O=C1O[C@H]([C@@H](O)CO)C([O-])=C1OP(=O)([O-])[O-].[Mg+2].[Mg+2].[Mg+2] [MAP]
- MTT50 (amount required to kill 50% of the cells in cell culture) (fibroblasts from person one): 75,000 ppm
- MTT50 (amount required to kill 50% of the cells in cell culture) (fibroblasts from person two): higher than 100,000 ppm
- cytotoxicity compared to L-ascorbic acid (fibroblasts of all ages): significantly lower cytotoxicity
